Values joined by “and” are separate entries in the source; they are usually repeats but may differ in a detail not shown here. Identical values can stand only once. “Also recorded” adds a separate entry of the source. Counter-ions that a name gives are not always drawn. Like-named read-outs stand apart in the source and are kept apart here.
Assays:
[1] = In vitro cytotoxicity assay (CytoTox-Glo) on BHK-F-Rep cells; format: cell-based, hamster; settings: hamster
Method: (§1) To define cytotoxic concentrations of the individual inhibitors, cytotoxicity assay with the CytoTox-Glo Cytotoxicity Assay (Promega) was performed according to the manufacturer’s instructions. As a positive control, 75 µg/well of cycloheximide was used. The inhibitors were diluted in DMSO to concentrations so that 2 µL/well could be added to reach the tested concentrations. For luminescence detection, a Hidex Sense with the HidexPlateReader Software 1.0.0 was used. Detection parameters were set for luminescence detection with an infrared cutoff of 1 second. As described by Promega, the difference of viable vs dead cells was calculated in Microsoft Excel 2016, and 50% of cytotoxic concentration (CC50) was determined in GraphPad Prism version 9.3.1 for Windows. The data were fitted to a nonlinear regression curve with log(inhibitor) vs normalized response with variable slope.

[2] = test system: serotype I FCoV replicon RNA in BHK-F-Rep cells; assay: microbe, parasite or virus in culture; format: cell-based, feline coronavirus (serotype I FECV field strain); settings: for IC50: BHK-F-Rep cells, median GFP intensity
Method: The BHK-F-Rep cells would specifically allow the evaluation of inhibitors that target viral replication, which includes basic processes such as RNA synthesis and viral polyprotein processing. […] GFP expression was assessed by flow cytometry. […] In addition to GFP detection, immunofluorescence staining of the N-protein was performed as a control of the replication inhibition in an inhibitor experiment (Fig. 2D).
For each inhibitor test, the BHK-F-Rep was cultured in T75 or T150 flasks, washed once with PBS, cells detached with Gibco TrypLE Express (Trypsin; Thermo Fisher Scientific), and then seeded in 12-well plates (25,000 cells/well) in 1 mL/well of cell-culture medium (MEM +10% FBS +50 U/mL Pen/Strep). Directly after seeding, the inhibitor was added to the cells. The plates were incubated for 96 hours at 37°C with 5% CO2.
To assess the GFP expression in BHK and Fcwf-4 cells, the supernatant was removed, the cells were washed once with PBS and then detached with trypsin and transferred to a 96-well plate. The plate was centrifuged at 1,700 rpm for 5 minutes and the supernatant discarded. Cells were once washed again with PBS and again centrifuged at 1,700 rpm for 5 minutes and the supernatant was discarded. For the replicon conditions, the cells were then stained with the LIVE/DEAD Fixable Aqua Dead Cell Stain Kit for 405 nm excitation (Invitrogen) according to the manufacturer’s instructions. As the dead cell control, one of the samples was placed at 60°C for 20 minutes and then stained. After staining, the cells were washed with PBS and centrifuged (1,700 rpm for 5 minutes), and the supernatant was discarded. For the Fcwf-4 cells infected with the recFCoV-GFP, the staining and washing step was not performed. Then, all the cells were washed with PBS before being resuspended in 200 µL PBS and transferred to Falcon 5 mL round-bottom tubes with cell strainer cap (Corning Incorporated) and kept in the dark on ice. Samples were acquired in Cytek Aurora with SpectroFlo Software Version 3.1.0 and analyzed using FlowJo software (FlowJo_v108.1).
Instead, to monitor inhibition, we determined the percent of GFP-positive cells. In either case, the median intensity of the GFP signal or the percentage of GFP-positive cells was normalized to the measurements of untreated conditions, by defining the untreated results of each triplicate as 100%. The value was then subtracted by 100 to get the value representing the percentage of inhibition.
All conditions were tested in triplicates on three different days always including a negative control. Statistical analysis and generation of graphs were performed using GraphPad Prism version 9.3.1 for Windows. The same as CC50, 50% inhibitory concentration (IC50) was determined in GraphPad Prism version 9.3.1 for Windows.

BHK-F-Rep cells = assay: In vitro cytotoxicity assay (CytoTox-Glo) on BHK-F-Rep cells; format: cell-based, hamster
Method: as §1

[3] = test system: recFCoV-GFP (serotype I FIPV strain Black); assay: Inhibitor test with recFCoV-GFP-infected Fcwf-4 cells, viral titers in supernatant (TCID50); format: cell-based, feline infectious peritonitis virus; settings: read-out: IC50 recFCoV-GFP viral titers
Description: (§2) Finally, we assessed GC376 and Remdesivir individually or in combination in a virus infection system. We used the previously described recombinant recFCoV-GFP that is based on the laboratory-adapted serotype I FIPV strain Black and contains the GFP gene as a replacement for the accessory genes 3a–c ([39]). Using this virus, we could measure inhibition by assessing GFP expression or by virus titration. However, the assessment of GFP expression by measuring the median fluorescent intensity, as we did for BHK-F-rep cells, was not possible since recFCoV-GFP-infected Felis catus whole fetus 4 (Fcwf-4) cells died before the reduction of GFP expression was observable. Instead, we determined the number of GFP-positive cells to monitor inhibition (Fig. 5A through C). In parallel, we determined the virus titers released into the cell culture supernatant from inhibitor-treated and infected cells (Fig. 5A through C). […] The results are shown in Fig. 5C and can be compared with Fig. 4A (BHK-F-Rep inhibition) and IC50 values for the different experimental systems are shown in Table 2. […]
All conditions were tested in triplicates on three different days always including a negative control. […] The selectivity index (SI) was calculated in Microsoft Excel 2016 as follows: SI = CC50/IC50.

[4] = test system: recFCoV-GFP (serotype I FIPV strain Black); assay: Inhibitor test with recFCoV-GFP-infected Fcwf-4 cells, flow cytometry of GFP-positive cells; format: cell-based, feline infectious peritonitis virus; settings: read-out: IC50 recFCoV-GFP flow cytometry
Description: as §2
To assess the GFP expression in BHK and Fcwf-4 cells, the supernatant was removed, the cells were washed once with PBS and then detached with trypsin and transferred to a 96-well plate. […] Samples were acquired in Cytek Aurora with SpectroFlo Software Version 3.1.0 and analyzed using FlowJo software (FlowJo_v108.1). […]

[5] = Cell viability testing in recFCoV-GFP infected Fcwf-4 cells; format: cell-based; settings: cat (Felis catus)
Description: Read-out as with the BHK-F-Rep cells done via flow cytometry and detection of GFP-positive cells (relative Inhibition) including IC50 values are shown in black with the left y-axis. As with the BHK-F-Rep cells, data shown on cell viability testing in the recFCoV-GFP infected Fcwf-4 cells are shown in black with the right y-axis including CC50 values. Additional data on viral titers of the recFCoV-GFP infected Fcwf-4 cells treated with the inhibitors and corresponding IC50 values are shown in red. The black and red lines in the graphs represent the mean value of the data collected from three independent experiments of individual drugs or their combination, respectively. The gray and red shaded areas represent the standard error of the mean.
To define cytotoxic concentrations of the individual inhibitors, cytotoxicity assay with the CytoTox-Glo Cytotoxicity Assay (Promega) was performed according to the manufacturer’s instructions. As a positive control, 75 µg/well of cycloheximide was used. […] For luminescence detection, a Hidex Sense with the HidexPlateReader Software 1.0.0 was used. Detection parameters were set for luminescence detection with an infrared cutoff of 1 second. As described by Promega, the difference of viable vs dead cells was calculated in Microsoft Excel 2016, and 50% of cytotoxic concentration (CC50) was determined in GraphPad Prism version 9.3.1 for Windows. […]

[6] = Alphacoronavirus 1, 96 h, 96 hours, flow cytometry

**Q.** For `CCN(CC)Cc1cc(Nc2ccnc3cc(Cl)ccc23)ccc1O` [Amodiaquine, Amodiaquine dihydrochloride], which CC50 [1] is on record?
**A.** 47.2 µM

**Q.** What about the “inhibitory effect on BHK-F-Rep cells” value ([2]; 96 hours, flow cytometry, in words) of the same compound?
**A.** did not observe an inhibitory effect; also recorded: did not show any inhibitory effect

**Q.** What about the IC50 [2, 6] of the same compound?
**A.** > 40 µM

**Q.** With `CC(C)C[C@H](NC(=O)OCc1ccccc1)C(=O)N[C@@H](CC1CCNC1=O)C(O)S(=O)(=O)O` (stereo partly drawn) [GC376] as the compound, how does the CC50 (BHK-F-Rep cells) read?
**A.** > 200 µM

**Q.** What about the IC50 ([3]; Fcwf-4 cells, MOI 0.01, 48 hours, TCID50 of supernatant) of the same compound?
**A.** 1.01 µM

**Q.** What about the IC50 ([4]; Fcwf-4 cells, MOI 0.01, 48 hours, GFP-positive cells) of the same compound?
**A.** 0.84 µM

**Q.** And the IC50 ([2]; 96 hours, flow cytometry, read-out: IC50)?
**A.** < 1 µM and 0.99 µM

**Q.** With `CC(C)C[C@H](NC(=O)OCc1ccccc1)C(=O)N[C@@H](C[C@@H]1CCNC1=O)C(O)S(=O)(=O)[O-].[Na+]` (stereo partly drawn) [GC376] as the compound, how does the “GFP expression of BHK-F-Rep cells after treatment (replicon-cured cell line)” value ([2]; two consecutive treatments of 96 hours with 20 µM) read?
**A.** undetectable

**Q.** With `CC(C)(C)[C@H](NC(=O)C(F)(F)F)C(=O)N1C[C@H]2[C@@H]([C@H]1C(=O)N[C@H](C#N)C[C@@H]1CCNC1=O)C2(C)C` [Nirmatrelvir] as the compound, how does the CC50 [1] read?
**A.** > 200 µM

**Q.** And the IC50 [2, 6]?
**A.** < 1 µM

**Q.** What about the IC50 ([2]; 96 hours, flow cytometry) of the same compound?
**A.** 0.78 µM

**Q.** For `CCC(CC)COC(=O)[C@H](C)N[P@](=O)(OC[C@H]1O[C@@](C#N)(c2ccc3c(N)ncnn23)[C@H](O)[C@@H]1O)Oc1ccccc1` [Remdesivir], which CC50 at 48 h [5] is on record?
**A.** > 200 µM

**Q.** What about the CC50 [1] of the same compound?
**A.** 99.1 µM

**Q.** What about the IC50 ([3]; Alphacoronavirus 1, 48 h) of the same compound?
**A.** 1.5 µM

**Q.** And the IC50 ([4]; Alphacoronavirus 1, 48 h)?
**A.** 1.15 µM
